For one assay, the target named is T1, p38 proteins (Mus musculus, UniProt P47811).
T1 construct: endogenous in cells; host or cells: RAW 264.7
Briefly: Degradation of p38 in Raw 264.7 macrophages (Western blot densitometry). It counts as cell-based. The settings on record: 10 μM, 24 hours. How it is done: To confirm that the compounds (p38 degraders) of Preparation Examples I″′ to III″′ reduce the amount of phospho-p38 (p-p38) proteins, experiments were performed using Raw 264.7 macrophages. Since p38 MAPK alpha is activated through the process of phosphorylation of threonine 180 (Thr180) and tyrosine 182 (Tyr182) residues by MKK3, MKK6, and the like, which are upstream regulators, phosphorylation of these residues was generally detected using an antibody (3D7 rabbit monoclonal antibody from Cell Signaling, Inc.) that specifically recognizes phospho-p38 (p-p38) MAPK in which p38 MAPK alpha was activated.
Specifically, the RAW 264.7 cells were cultured in DMEM medium containing 10% fetal bovine serum (FBS), 1% penicillin, and streptomycin (100 U/mL), transferred to a 6-well plate, and after 24 hours, the p38 degraders were diluted in the DMEM culture medium and the cells were treated with 10 μM concentration thereof. After treatment, the cells were incubated in a CO2 incubator for 24 hours. Through protein immunoblotting (Western Blot), the degrading capacity of each compound against p38 and p-p38 proteins in cells was confirmed. After cell culture was completed according to the experimental conditions, the cells were collected and centrifuged at 1,800 rpm for 3 minutes. The cells in the precipitate were lysed with RIPA (25 mM Tris-HCl pH 7.6, 150 mM NaCl, 1% NP-40, 1% sodium deoxycholate, 0.1% SDS, 1× Protease Inhibitor Cocktail), 5× sample buffer was added, and then heated at 100° C. for 15 minutes. The prepared sample was electrophoresed with sodium dodecyl sulfate poly acrylamide gel electrophoresis (SDS-PAGE), and then the proteins in the gel were transferred to a PVDF membrane using Trans-Blot Turbo. The membrane was treated with a 5% bovine serum albumin (BSA) solution and blocked at room temperature for 2 hours, and then p-p38, p38, and R-actin antibodies were diluted in the 5% BSA solution to react with the membrane at 4° C. overnight. After washed with PBST (phosphate-based saline containing 0.5% Tween20) 5 times, horse radish peroxidase (HRP)-conjugated secondary antibodies were diluted in PBST to react at room temperature for 2 hours, and then washed again with a PBST solution 5 times. After enzyme-substrate reaction was carried out using a HRP substrate, a signal was measured with chemi-doc equipment, and the densitometry of bands corresponding to the p-p38 and p38 proteins detected in the Preparation Example Compounds was quantitatively analyzed. The case when the degrading capacity of each p38 degrader was reduced by less than 40% is indicated as +, the case when the degrading capacity was reduced by 40% to 70% (exclusive of 70) is indicated as ++, the case when the degrading capacity was reduced by 70% or more is indicated as +++ in Tables 24 to 26 below. As shown in the following Tables, it was confirmed that the compounds of Preparation Examples I″′ to III″′ according to the present invention have excellent degrading capacity.
For orientation: In western blotting, separated proteins are transferred to a membrane and probed.

Another assay has as its target T2, Aurora A proteins (Homo sapiens, UniProt O14965).
T2 construct: endogenous in cells; host or cells: MM.1S
T2 sequence (O14965 1-403): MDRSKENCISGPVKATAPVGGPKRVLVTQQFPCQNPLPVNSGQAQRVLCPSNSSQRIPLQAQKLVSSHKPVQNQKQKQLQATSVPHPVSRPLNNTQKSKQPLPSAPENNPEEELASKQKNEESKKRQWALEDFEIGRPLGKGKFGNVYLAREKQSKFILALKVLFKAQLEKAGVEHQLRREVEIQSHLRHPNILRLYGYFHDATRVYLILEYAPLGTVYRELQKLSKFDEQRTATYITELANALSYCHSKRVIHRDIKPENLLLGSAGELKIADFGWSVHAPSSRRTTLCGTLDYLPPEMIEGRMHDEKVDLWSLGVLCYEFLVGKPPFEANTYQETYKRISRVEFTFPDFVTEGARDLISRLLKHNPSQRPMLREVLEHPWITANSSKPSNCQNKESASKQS
The experiment in a line: Degradation of Aurora A protein in MM.1S cell lines (Western blot densitometry). It counts as cell-based. The settings on record: MM1.S, read-out: Aurora A degrading capacity (%). How it is done:
Specifically, the MM.1S cells were cultured in RPMI-1640 medium containing 10% fetal bovine serum (FBS), 1% penicillin, and streptomycin (100 U/mL), transferred to a 6-well plate, and after 24 hours, the Aurora A degraders were diluted in the RPMI culture medium and cells were treated with 5 μM concentration thereof. After treatment, the cells were incubated in a CO2 incubator for 24 hours. […] After cell culture was completed according to the experimental conditions, the cells were collected and centrifuged at 1,800 rpm for 3 minutes. The cells in the precipitate were lysed with RIPA (25 mM Tris-HCl pH 7.6, 150 mM NaCl, 1% NP-40, 1% sodium deoxycholate, 0.1% SDS, 1× Protease Inhibitor Cocktail), 5× sample buffer was added, and then heated at 100° C. for 15 minutes. The prepared sample was electrophoresed with sodium dodecyl sulfate poly acrylamide gel electrophoresis (SDS-PAGE), and then the proteins in the gel were transferred to a PVDF membrane using Trans-Blot Turbo. The membrane was treated with a 5% bovine serum albumin (BSA) solution and blocked at room temperature for 2 hours, and then Aurora A and R-actin antibodies were diluted in the 5% BSA solution to react with the membrane at 4° C. overnight. After washed with PBST (0.5% Tween20) 5 times, horse radish peroxidase (HRP)-conjugated secondary antibodies were diluted in PBST to react at room temperature for 2 hours, and then washed again with a PBST solution 5 times. After enzyme-substrate reaction was carried out using a HRP substrate, a signal was measured with chemi-doc equipment, and the densitometry of a band corresponding to the Aurora A protein detected in the Preparation Example Compounds was quantitatively analyzed. The case when the degrading capacity of each Aurora A degrader was reduced by less than 40% is indicated as +, the case when the degrading capacity was reduced by 40% to 70% (exclusive of 70) is indicated as ++, the case when the degrading capacity was reduced by 70% or more is indicated as +++ in Tables 20 to 23 below.

Where a name gives a salt, the structure may show the parent alone. Read-outs that look alike come from different tables or passages of the source. A value given as a limit tells only on which side of the number the result lay.

T1 sequence (P47811 whole entry): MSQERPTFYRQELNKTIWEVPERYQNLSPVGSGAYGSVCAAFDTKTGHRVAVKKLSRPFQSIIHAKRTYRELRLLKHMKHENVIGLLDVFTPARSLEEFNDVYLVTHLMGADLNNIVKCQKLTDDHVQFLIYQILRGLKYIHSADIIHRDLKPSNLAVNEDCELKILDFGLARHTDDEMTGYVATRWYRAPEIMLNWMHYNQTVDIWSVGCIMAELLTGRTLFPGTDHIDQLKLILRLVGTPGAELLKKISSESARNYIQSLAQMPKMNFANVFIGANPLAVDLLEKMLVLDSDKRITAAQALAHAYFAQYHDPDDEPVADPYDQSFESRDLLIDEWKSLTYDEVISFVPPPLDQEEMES

On to `Cc1ccc(C(=O)NC2CC2)cc1-c1ccc(C(=O)c2ccc(OCCOC(=O)Nc3ccc(C#CC(N)CO)cc3)cc2)cc1.Cl` (stereo not shown) [3-49″′, 2-(4-(5′-(cyclopropylcarbamoyl)-2′-methyl-[1,1′-biphenyl]-4-carbonyl)phenoxy)ethyl (4-(3-amino-4-hydroxybut-1-yn-1-yl)phenyl)carbamate hydrochloride], for which, at p38 proteins, the “p38 degrading capacity (%)” value is “+++ (the degrading capacity was reduced by 70% or more)”.

Regarding `COC(=O)c1ccc(C#CCNC(=O)OCCOc2ccc(C(=O)c3ccc(-c4cc(C(=O)NC5CC5)ccc4C)cc3)cc2)cc1C#CCN.Cl` [5-116″′, methyl 2-(3-aminoprop-1-yn-1-yl)-4-(3-(((2-(4-(5′-(cyclopropylcarbamoyl)-2′-methyl-[1,1′-biphenyl]-4-carbonyl)phenoxy)ethoxy)carbonyl)amino)prop-1-yn-1-yl)benzoate hydrochloride], the “p38 degrading capacity (%)” value on p38 proteins is listed as “+++ (the degrading capacity was reduced by 70% or more)”.

Regarding `COC(=O)c1ccc(C(=O)N2CCN(C(=O)OCCOc3ccc(C(=O)c4ccc(-c5cc(C(=O)NC6CC6)ccc5C)cc4)cc3)CC2)cc1C#CCN` [5-140″′, 2-(4-(5′-(cyclopropylcarbamoyl)-2′-methyl-[1,1′-biphenyl]-4-carbonyl)phenoxy)ethyl 4-(3-(3-aminoprop-1-yn-1-yl)-4-(methoxycarbonyl)benzoyl)piperazine-1-carboxylate trifluoroacetic acid], the “p38 degrading capacity (%)” value at p38 proteins is recorded as “+++ (the degrading capacity was reduced by 70% or more)”.

On to `COC(=O)c1ccc(NC(=O)CCCC(=O)OCCOc2ccc(C(=O)c3ccc(-c4cc(C(=O)NC5CC5)ccc4C)cc3)cc2)cc1C#CCN.Cl` [5-106″′, methyl 2-(3-aminoprop-1-yn-1-yl)-4-(5-(2-(4-(5′-(cyclopropylcarbamoyl)-2′-methyl-[1,1′-biphenyl]-4-carbonyl)phenoxy)ethoxy)-5-oxopentanamido)benzoate hydrochloride], for which, at p38 proteins, the “p38 degrading capacity (%)” value is “+++ (the degrading capacity was reduced by 70% or more)”.

For the compound `Cc1ccc(C(=O)NC2CC2)cc1-c1ccc(C(=O)c2ccc(OCCOC(=O)NCCCNC(=O)c3ccc(C#CCN)o3)cc2)cc1` [4-166″′, 2-(4-(5′-(cyclopropylcarbamoyl)-2′-methyl-[1,1′-biphenyl]-4-carbonyl)phenoxy)ethyl (3-(5-(3-aminoprop-1-yn-1-yl)furan-2-carboxamido)propyl)carbamate trifluoroacetic acid], the “p38 degrading capacity (%)” value on p38 proteins is reported as “+++ (the degrading capacity was reduced by 70% or more)”.

For the compound `Cc1ccc(C(=O)NC2CC2)cc1-c1ccc(C(=O)c2ccc(OCCOC(=O)Nc3ccc(C#CCN)cc3)cc2)cc1.Cl` [1-1″′, 2-(4-(5′-(cyclopropylcarbamoyl)-2′-methyl-[1,1′-biphenyl]-4-carbonyl)phenoxy)ethyl (4-(3-aminoprop-1-yn-1-yl)phenyl)carbamate hydrochloride], the “p38 degrading capacity (%)” value on p38 proteins was “+++ (the degrading capacity was reduced by 70% or more)”.

As to `COC(=O)c1ccc(C#CCNC(=O)C2CCN(C(=O)c3ccc(Nc4ncc5c(n4)-c4ccc(Cl)cc4C(c4c(F)cccc4OC)=NC5)cc3OC)CC2)cc1C#CCN` [5-28″, methyl 2-(3-aminoprop-1-yn-1-yl)-4-(3-(1-(4-((9-chloro-7-(2-fluoro-6-methoxyphenyl)-5H-benzo[c]pyrimido[4,5-e]azepin-2-yl)amino)-2-methoxybenzoyl)piperidine-4-carboxamido)prop-1-yn-1-yl)benzoate trifluoroacetic acid], the Aurora A degradation (%) at 5 µM at Aurora A proteins (24 h) is over 70%.

Consider `COC(=O)c1ccc(C(=O)NCCCNC(=O)c2ccc(Nc3ncc4c(n3)-c3ccc(Cl)cc3C(c3c(F)cccc3OC)=NC4)cc2OC)cc1C#CCN` [5-18″, methyl 2-(3-aminoprop-1-yn-1-yl)-4-((3-(4-((9-chloro-7-(2-fluoro-6-methoxyphenyl)-5H-benzo[c]pyrimido[4,5-e]azepin-2-yl)amino)-2-methoxybenzamido)propyl)carbamoyl)benzoate hydrochloride], for which the Aurora A degradation (%) at 5 µM on Aurora A proteins (MM.1S cells, 5 μM, 24 hours, Western blot) is over 70%.

`COc1cc(Nc2ncc3c(n2)-c2ccc(Cl)cc2C(c2c(F)cccc2OC)=NC3)ccc1C(=O)NCC#Cc1ccc(C#CCN)o1` [4-1″, N-(3-(5-(3-aminoprop-1-yn-1-yl)furan-2-yl)prop-2-yn-1-yl)-4-((9-chloro-7-(2-fluoro-6-methoxyphenyl)-5H-benzo[c]pyrimido[4,5-e]azepin-2-yl)amino)-2-methoxybenzamide trifluoroacetic acid]: the Aurora A degradation (%) at 5 µM on Aurora A proteins (24 h) is over 70%.

For the compound `COC(=O)c1ccc(N(C)C(=O)CCCNC(=O)c2ccc(Nc3ncc4c(n3)-c3ccc(Cl)cc3C(c3c(F)cccc3OC)=NC4)cc2OC)cc1C#CCN` [5-150″, methyl 2-(3-aminoprop-1-yn-1-yl)-4-(4-(4-((9-chloro-7-(2-fluoro-6-methoxyphenyl)-5H-benzo[c]pyrimido[4,5-e]azepin-2-yl)amino)-2-methoxybenzamido)-N-methylbutanamido)benzoate trifluoroacetic acid], the Aurora A degradation (%) at 5 µM at Aurora A proteins (24 h) is under 40%.

The record behind these values is patent US20240425517A1, “NOVEL COMPOUND FOR DEGRADATION OF TARGET PROTEIN OR POLYPEPTIDE BY POLYUBIQUITINATION” (PRAZER THERAPEUTICS INC., priority 2021, published 2024).
